Data reported in patent US11180462B2, “Microbiocidal oxadiazole derivatives” (SYNGENTA PARTICIPATIONS AG, priority 2015, dated 2021).

How the values were obtained:
[1] = system: Puccinia recondita f. Sp. Tritici; test: Fungicidal activity against Puccinia recondita f. sp. tritici / wheat / leaf disc preventative (brown rust); assay type: in vivo; details: foliar, 200 ppm in the applied formulation, wheat leaf segments, preventative, compared to untreated control leaf disks, read-out: disease control
Method in brief: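 200 ppm spray on wheat cv. Kanzler leaf segments; spore inoculation +1 day; 19° C., 75% rh, 12 h/12 h light cycle; single rating of % control vs untreated at 7 to 9 days.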

[2] = system: Puccinia recondita f. Sp. Tritici; test: Fungicidal activity against Puccinia recondita f. sp. tritici / wheat / leaf disc curative (brown rust); assay type: in vivo; details: foliar, 24 h, 200 ppm in the applied formulation, wheat leaf segments, curative (applied 1 day after inoculation), compared to untreated control leaf disks, read-out: disease control
Method in brief: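 % disease control vs untreated, scored 6–8 d post-application. Wheat cv. Kanzler segments, spore-inoculated, dark 19° C/75% RH; formulated cpd applied 1 d post-inoc; then 19° C, 75% RH, 12 h L/12 h D.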

Phakopsora Pachyrhizi = test: Fungicidal activity against Phakopsora pachyrhizi / soybean / leaf disc preventative (Asian soybean rust); assay type: in vivo; details: foliar, 200 ppm in the applied formulation, soybean leaf disks, compared to untreated control leaf disks, read-out: disease control
Method in brief: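 Scored 12 to 14 days post-application as percent control relative to untreated check discs, rust spores were sprayed under the disc one day after compound treatment. Incubation: 20°C, 75% rh, first 24–36 h in darkness, then 12 h daily light; discs kept on water agar.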

[3] = system: Glomerella lagenarium (Colletotrichum lagenarium); test: Fungicidal activity against Glomerella lagenarium (Colletotrichum lagenarium) liquid culture / cucumber / preventative (anthracnose); assay type: cell-based; details: Colletotrichum orbiculare; 20 ppm in the applied formulation; liquid culture (PDB), growth inhibition measured photometrically after 3 to 4 days; compared to untreated control; read-out: disease control
Method in brief: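 Percent activity against the untreated check was derived from photometric growth measurements made 2 to 7 days after conidia in potato dextrose broth were combined with compound at 20 ppm. Cultures were kept dark at 24 °C and 96% humidity.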

CON(Cc1ccc(-c2noc(C(F)(F)F)n2)cc1)C(=O)CC(C)(C)C [Compound 1.41, N-methoxy-3,3-dimethyl-N-[[4-[5-(trifluoromethyl)-1,2,4-oxadiazol-3-yl]phenyl]methyl]-butanamide]
≥ 80%: pest or weed control at 200 ppm [1] | pest or weed control at 200 ppm [2] | pest or weed control at 200 ppm (Phakopsora Pachyrhizi) | inhibition of growth at 20 ppm [3]

C#CCN(Cc1ccc(-c2noc(C(F)(F)F)n2)cc1)C(=O)CCC(F)(F)F [Compound 1.169, 4,4,4-trifluoro-N-prop-2-ynyl-N-[[4-[5-(trifluoromethyl)-1,2,4-oxadiazol-3-yl]phenyl]methyl]-butanamide]
≥ 80%: pest or weed control at 200 ppm [1] | pest or weed control at 200 ppm [2] | pest or weed control at 200 ppm (Phakopsora Pachyrhizi) | inhibition of growth at 20 ppm [3]

CCN(C)C(=O)N(Cc1ccc(-c2noc(C(F)(F)F)n2)cc1)OC [Compound 3.17, 1-ethyl-3-methoxy-1-methyl-3-[[4-[5-(trifluoromethyl)-1,2,4-oxadiazol-3-yl]phenyl]methyl]urea]
≥ 80%: pest or weed control at 200 ppm [1] | pest or weed control at 200 ppm [2] | pest or weed control at 200 ppm (Phakopsora Pachyrhizi) | inhibition of growth at 20 ppm [3]

C=CCN(Cc1ccc(-c2noc(C(F)(F)F)n2)cc1)C(=O)C1CC1(F)F (centres unmarked) [Compound 1.484, N-allyl-2,2-difluoro-N-[[4-[5-(trifluoromethyl)-1,2,4-oxadiazol-3-yl]phenyl]methyl]-cyclopropane-carboxamide]
≥ 80%: pest or weed control at 200 ppm [1] | pest or weed control at 200 ppm [2] | pest or weed control at 200 ppm (Phakopsora Pachyrhizi) | inhibition of growth at 20 ppm [3]

CC(C)(CCl)C(=O)N(Cc1ccc(-c2noc(C(F)(F)F)n2)cc1)C1CC1 [Compound 1.110, 3-chloro-N-cyclopropyl-2,2-dimethyl-N-[[4-[5-(trifluoromethyl)-1,2,4-oxadiazol-3-yl]phenyl]methyl]-propanamide]
≥ 80%: pest or weed control at 200 ppm [1] | pest or weed control at 200 ppm [2] | pest or weed control at 200 ppm (Phakopsora Pachyrhizi) | inhibition of growth at 20 ppm [3]

O=C(C1CCC1)N(O)Cc1ccc(-c2noc(C(F)(F)F)n2)cc1 [Compound 1.761, N-hydroxy-N-[[4-[5-(trifluoromethyl)-1,2,4-oxadiazol-3-yl]phenyl]methyl]-cyclobutane-carboxamide]
≥ 80%: pest or weed control at 200 ppm [1] | pest or weed control at 200 ppm [2] | pest or weed control at 200 ppm (Phakopsora Pachyrhizi) | inhibition of growth at 20 ppm [3]

CC(=O)N(O)Cc1ccc(-c2noc(C(F)(F)F)n2)cc1 [Compound 1.773, N-hydroxy-N-[[4-[5-(trifluoromethyl)-1,2,4-oxadiazol-3-yl]phenyl]methyl]-acetamide]
≥ 80%: pest or weed control at 200 ppm [1] | pest or weed control at 200 ppm [2] | pest or weed control at 200 ppm (Phakopsora Pachyrhizi) | inhibition of growth at 20 ppm [3]

CN(Cc1ccc(-c2noc(C(F)(F)F)n2)cc1)C(=O)C1CC1(F)F (centres unmarked) [Compound 1.523, 2,2-difluoro-N-methyl-N-[[4-[5-(trifluoromethyl)-1,2,4-oxadiazol-3-yl]phenyl]methyl]-cyclopropane-carboxamide]
≥ 80%: pest or weed control at 200 ppm [1] | pest or weed control at 200 ppm [2] | pest or weed control at 200 ppm (Phakopsora Pachyrhizi) | inhibition of growth at 20 ppm [3]

CCC(COC)C(=O)N(Cc1ccc(-c2noc(C(F)(F)F)n2)cc1)C(C)C (centres unmarked) [Compound 1.680, N-isopropyl-2-(methoxymethyl)-N-[[4-[5-(trifluoromethyl)-1,2,4-oxadiazol-3-yl]phenyl]methyl]-butanamide]
≥ 80%: pest or weed control at 200 ppm [1] | pest or weed control at 200 ppm [2] | pest or weed control at 200 ppm (Phakopsora Pachyrhizi) | inhibition of growth at 20 ppm [3]

CCCN(Cc1ccc(-c2noc(C(F)(F)F)n2)cc1)C(=O)C1(C#N)CC1 [Compound 1.665, 1-cyano-N-propyl-N-[[4-[5-(trifluoromethyl)-1,2,4-oxadiazol-3-yl]phenyl]methyl]-cyclopropane-carboxamide]
≥ 80%: pest or weed control at 200 ppm [1] | pest or weed control at 200 ppm [2] | pest or weed control at 200 ppm (Phakopsora Pachyrhizi) | inhibition of growth at 20 ppm [3]

CON(Cc1ccc(-c2noc(C(F)(F)F)n2)cc1)C(=O)NCc1ccccc1 [Compound 3.15, 3-benzyl-1-methoxy-1-[[4-[5-(trifluoromethyl)-1,2,4-oxadiazol-3-yl]phenyl]methyl]urea]
≥ 80%: pest or weed control at 200 ppm [1] | pest or weed control at 200 ppm [2] | pest or weed control at 200 ppm (Phakopsora Pachyrhizi) | inhibition of growth at 20 ppm [3]

COCCC(=O)N(O)Cc1ccc(-c2noc(C(F)(F)F)n2)cc1 [Compound 1.758, N-hydroxy-3-methoxy-N-[[4-[5-(trifluoromethyl)-1,2,4-oxadiazol-3-yl]phenyl]methyl]-propanamide]
≥ 80%: pest or weed control at 200 ppm [1] | pest or weed control at 200 ppm [2] | pest or weed control at 200 ppm (Phakopsora Pachyrhizi) | inhibition of growth at 20 ppm [3]

C=CCN(Cc1ccc(-c2noc(C(F)(F)F)n2)cc1)C(=O)C1CCCO1 (centres unmarked) [Compound 1.489, N-allyl-N-[[4-[5-(trifluoromethyl)-1,2,4-oxadiazol-3-yl]phenyl]methyl]-tetrahydrofuran-2-carboxamide]
≥ 80%: pest or weed control at 200 ppm [1] | pest or weed control at 200 ppm [2] | pest or weed control at 200 ppm (Phakopsora Pachyrhizi) | inhibition of growth at 20 ppm [3]

CON(Cc1ccc(-c2noc(C(F)(F)F)n2)cc1F)C(=O)C1CCCO1 (centres unmarked) [Compound 1.563, N-[[2-fluoro-4-[5-(trifluoromethyl)-1,2,4-oxadiazol-3-yl]phenyl]methyl]-N-methoxy-tetrahydrofuran-2-carboxamide]
≥ 80%: pest or weed control at 200 ppm [1] | pest or weed control at 200 ppm [2] | pest or weed control at 200 ppm (Phakopsora Pachyrhizi) | inhibition of growth at 20 ppm [3]

CCCN(Cc1ccc(-c2noc(C(F)(F)F)n2)cc1)C(=O)C(C)C [Compound 1.651, 2-methyl-N-propyl-N-[[4-[5-(trifluoromethyl)-1,2,4-oxadiazol-3-yl]phenyl]methyl]-propanamide]
≥ 80%: pest or weed control at 200 ppm [1] | pest or weed control at 200 ppm [2] | pest or weed control at 200 ppm (Phakopsora Pachyrhizi) | inhibition of growth at 20 ppm [3]

CCON(Cc1ccc(-c2noc(C(F)(F)F)n2)cc1)C(=O)C1CCCO1 (centres unmarked) [Compound 1.626, N-ethoxy-N-[[4-[5-(trifluoromethyl)-1,2,4-oxadiazol-3-yl]phenyl]methyl]-tetrahydrofuran-2-carboxamide]
≥ 80%: pest or weed control at 200 ppm [1] | pest or weed control at 200 ppm [2] | pest or weed control at 200 ppm (Phakopsora Pachyrhizi) | inhibition of growth at 20 ppm [3]

CC1(C(=O)N(Cc2ccc(-c3noc(C(F)(F)F)n3)cc2)C2CC2)CC1 [Compound 1.118, N-cyclopropyl-1-methyl-N-[[4-[5-(trifluoromethyl)-1,2,4-oxadiazol-3-yl]phenyl]methyl]-cyclopropane-carboxamide]
≥ 80%: pest or weed control at 200 ppm [1] | pest or weed control at 200 ppm [2] | pest or weed control at 200 ppm (Phakopsora Pachyrhizi) | inhibition of growth at 20 ppm [3]

CN(Cc1ccc(-c2noc(C(F)(F)F)n2)cc1)C(=O)C1OCCO1 [Compound 1.531, N-methyl-N-[[4-[5-(trifluoromethyl)-1,2,4-oxadiazol-3-yl]phenyl]methyl]-1,3-dioxolane-2-carboxamide]
≥ 80%: pest or weed control at 200 ppm [1] | pest or weed control at 200 ppm [2] | pest or weed control at 200 ppm (Phakopsora Pachyrhizi) | inhibition of growth at 20 ppm [3]

CCC(C)N(Cc1ccc(-c2noc(C(F)(F)F)n2)cc1)C(=O)C1CC1F (centres unmarked) [Compound 1.401, 2-fluoro-N-sec-butyl-N-[[4-[5-(trifluoromethyl)-1,2,4-oxadiazol-3-yl]phenyl]methyl]-cyclopropane-carboxamide]
≥ 80%: pest or weed control at 200 ppm [1] | pest or weed control at 200 ppm [2] | pest or weed control at 200 ppm (Phakopsora Pachyrhizi) | inhibition of growth at 20 ppm [3]

CC(C)C(=O)N(O)Cc1ccc(-c2noc(C(F)(F)F)n2)cc1 [Compound 1.752, N-hydroxy-2-methyl-N-[[4-[5-(trifluoromethyl)-1,2,4-oxadiazol-3-yl]phenyl]methyl]-propanamide]
≥ 80%: pest or weed control at 200 ppm [1] | pest or weed control at 200 ppm [2] | pest or weed control at 200 ppm (Phakopsora Pachyrhizi) | inhibition of growth at 20 ppm [3]
